Several values for one entry are separate records, joined by “and”; a condition that tells them apart may be missing. Equal values may be shown once. Marks after values point to notes of the source that are not given here.
Key:
[1] = test system: N2a; test: Whole-cell EPR: cellular uptake and intracellular formation/decomposition of mononuclear DNIC in N2a; type: cell-based, mouse; settings: for tmax for cellular uptake and intracellular transformation (whole-cell EPR): normoxia, 100 μM DNIC–COOH or 10 μM DNIC–COOMe
Experimental: Cellular uptake of DNIC–COOH and intracellular formation/decomposition of mononuclear DNICs in MSC/N2a/HCEC cells were investigated using EPR spectroscopy. Briefly, cells were seeded into two (or one) 100 mm dish(es) at a density of 2 × 10^6 cells/dish and incubated at 37 °C overnight. On the next day, cells were treated with 100 μM of DNIC–COOH (or 100 μM of DNIC–COOH to N2a and 75 μM of DNIC–COOH to HCEC) and incubated for 0, 0.5, 1, 2, 3, 4, 8, and 24 h, respectively. After removal of the supernatant solution, cells were washed with DPBS before addition of 1 mL of trypsin (0.05%)/EDTA (0.53 mM) and incubation for 5 min at 37 °C. After the obtained cell suspension solutions from two 100 mm dishes were combined and centrifuged at 100g for 5 min, the supernatant was removed before addition of 100 μL of αMEM to DNIC-treated MSC (or MEM to DNIC-treated N2a and HSFM to DNIC-treated HCEC). This solution was then transferred into EPR quartz tube and frozen in N2(l) before the EPR measurements. For each measured EPR spectrum, double integration was executed to obtain the integrated EPR intensity under each condition. Moreover, time-dependent decay of integrated EPR signal intensity after treatment of DNIC–COOH was fit to pseudo-first-order kinetics in order to determine the intracellular half-life for EPR-active mononuclear DNIC. Three independent experiments were executed to measure the average half-life for intracellular decomposition of EPR-active mononuclear DNIC after treatment with DNIC–COOH at 37 °C. On the other hand, at the time point with maximum integrated EPR signal intensity, spin quantitation of intracellular EPR-active DNICs was performed using mononuclear DNIC [PPN][(NO)2Fe(S5)] as a standard according to the methodology used in the previous work.[50] Cellular uptake of DNIC–COOMe (2.5 μM to MSC, 10 μM to N2a, or 1 μM to HCEC) and intracellular formation/decomposition of EPR-active mononuclear DNICs were investigated using EPR spectroscopy in a similar manner.
Studies of cellular uptake mechanisms were investigated using EPR spectroscopy in combination with pretreatments of alternative inhibitors. After the MSC cells were seeded into two (or one) 100 mm dish(es) at a density of 2 × 10^6 cells/dish and incubated at 37 °C overnight, sequential treatments of 50 μM of NEM for 0.5 h and 100 μM of DNIC–COOH for 2 h were performed before the treated MSC cells were collected for EPR measurement following the procedure described above. […]

[2] = test system: MSC; test: Cytoprotection of MSC against H2O2 oxidative stress (CCK-8, live/dead); type: cell-based, human; settings: MSC pretreated 8 h (100 μM DNIC–COOH or 2.5 μM DNIC–COOMe), then 250 μM H2O2 24 h
Experimental: Cell viability study of MSC, N2a, and HCEC cells with or without the treatment of DNIC–COOH was performed using a Cell Counting Kit-8 (IMT Formosa New Materials Co., Ltd., Taiwan) according to the manufacturer’s protocol. Briefly, cells were seeded into a 96-well plate at a density of 4 × 10^3 cells/well for MSC, 1 × 10^4 cells/well for N2a, and 8 × 10^3 cells/well for HCEC, respectively, and incubated overnight. On the next day, cells were treated with DNIC–COOH at different concentrations and incubated for 24 h. The culture medium was then removed before the cells were washed with DPBS. After addition of fresh medium containing CCK-8 solution to the cells and incubation for 1–3 h, the absorbance at 450 nm was then measured on a microplate reader (SpectraMax iD3, Molecular Devices, San Jose, CA) with a reference wavelength of 650 nm. […]
To investigate the capacity of DNIC preconditioning to protect the MSC cells against elevated oxidative stress, cells were pretreated with 2.5 μM of DNIC–COOMe or 100 μM of DNIC–COOH for 8 h before being incubated with 250 μM H2O2 for another 24 h. Cell viability was evaluated by live/dead staining or CCK-8 assay. In a similar manner, DNIC-induced cytoprotective effect in HCECs was evaluated through pretreatment of 1 μM of DNIC–COOMe or 75 μM of DNIC–COOH for 24 h.

[3] = target: T1, metMb (Equus caballus, UniProt P68082); test: Transfer of NO− to metMb yielding MbNO (UV–vis); type: biochemical; settings: for reaction time for complete conversion of metMb into MbNO: metMb 5 μM/Cys 200 μM, generated [(NO)2Fe(SR)(SCys)]n−, phosphate buffer (pH 7.4), anaerobic; for change of UV–vis absorption bands of metMb (NO−-transfer): metMb in the presence of BSA (50 mg/mL)
T1 construct: purchased Sigma
T1 sequence (P68082 2-154 limits assumed): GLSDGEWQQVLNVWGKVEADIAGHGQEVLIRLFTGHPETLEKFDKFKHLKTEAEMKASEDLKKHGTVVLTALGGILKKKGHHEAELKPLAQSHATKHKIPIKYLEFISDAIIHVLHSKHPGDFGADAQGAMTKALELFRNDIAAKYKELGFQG
Experimental: After addition of 30 μL of 500 μM stock solution of DNIC–COOH (in DMSO) to a 4 mL quartz cuvette containing 5 μM metMb and 200 μM Cys in 3 mL of 25 mM PBS (pH 7.4), UV–vis spectra for this mixture solution were measured every 30 min. Transformation of […] into MbNO was achieved after reaction for 4 h based on the complete shift of UV–vis absorption bands from (410, 502, and 629) nm to (419, 548, and 578) nm.
Reactions of (a) 5 μM of DNIC–COOMe with 5 μM of metMb in the presence of 200 μM of Cys, (b) 5 μM of DNIC–COOH/DNIC–COOMe with 5 μM of deoxyMb in the presence of 200 μM of Cys, and (c) 5 μM of DNIC–COOH/DNIC–COOMe with 5 μM of metMb in the presence of 50 mg/mL BSA were performed under a similar manner.

## O=[N][Fe]1([N]=O)[SH](CCC(=O)O)[Fe]([N]=O)([N]=O)[SH]1CCC(=O)O (centres unmarked) [DNIC–COOH, [(NO)2Fe(μ-SCH2CH2COOH)2Fe(NO)2]]
[1]; CPZ-treated N2a
  relative whole-cell EPR signal intensity at gav = 2.03 (control = 100%): 77.6 ± 22.5%
[1]; MβCD-treated N2a
  relative whole-cell EPR signal intensity at gav = 2.03 (control = 100%): 81.7 ± 18.2%
[1]; N2a
  tmax for cellular uptake and intracellular transformation (whole-cell EPR): 2 h
[2]
  survival rate: 58.7%
[3]
  reaction time for complete conversion of metMb into MbNO: 4 h and 4.0 ^f h
  change of UV–vis absorption bands of metMb (NO−-transfer): no change
[3]; listed as DNIC-COOH
  reaction time for complete conversion of metMb into MbNO: 4.0 h

## COC(=O)CC[SH]1[Fe]([N]=O)([N]=O)[SH](CCC(=O)OC)[Fe]1([N]=O)[N]=O (centres unmarked) [DNIC–COOMe, [(NO)2Fe(μ-SCH2CH2COOCH3)2Fe(NO)2]]
[1]; N2a, native FBS replaced with 5% NEM-treated FBS
  relative whole-cell EPR signal intensity at gav = 2.03 (control = 100%): 116.2 ± 33.6%
[1]; N2a
  tmax for cellular uptake and intracellular transformation (whole-cell EPR): 0.5 h
[1]; N2a, pretreatment of NEM 0.5 h, then DNIC–COOMe 0.5 h, reduction
  relative whole-cell EPR signal intensity at gav = 2.03 (control = 100%): 20.1 ± 9.7%
[2]
  survival rate: 35.8%
[3]
  reaction time for complete conversion of metMb into MbNO: 4.0 ^f h
  change of UV–vis absorption bands of metMb (NO−-transfer): no change
[3]; listed as DNIC-COOMe
  reaction time for complete conversion of metMb into MbNO: 4.0 h

Source: article PMC11040670, “Mechanistic and Kinetic Insights into Cellular Uptake of Biomimetic Dinitrosyl Iron Complexes and Intracellular Delivery of NO for Activation of Cytoprotective HO-1” (JACS Au, 2024)
